Assay [1] has as its system macrophage-mediated intravasation of human breast cancer cells (MDA-MB 231-GFP). As to the kind of experiment: In vitro intravasation-directed transendothelial migration (iTEM) assay. The format is cell-based. Conditions: BAC1.2F5 macrophages, HUVEC monolayer. The procedure: In vitro intravasation-directed transendothelial migration (iTEM) assay protocol. The iTEM assay was performed in a Transwell two-chamber apparatus. The Transwell was prepared so that tumor cell transendothelial migration of tumor cells was in the intravasation direction (from subluminal side to luminal side of the endothelium). We define this as the iTEM assay. To prepare the endothelial monolayer, the underside of each Transwell was coated with 50 μl of Matrigel (2.5 μg/ml; Invitrogen). About 100,000 HUVEC cells were plated on the Matrigel-coated underside of the Transwells. Transwells were then flipped onto a 24-well plate containing 200 μl of α-MEM (minimum essential medium) supplemented with 10% fetal bovine serum (FBS)+3000 U of CSF-1 and incubated until the endothelium formed impermeable monolayers. […] Once impermeable by these criteria, the Transwell assay was used for iTEM studies. All the assays were run in the presence of BAC1.2F5 murine macrophage cell line and MDA-MB 231-GFP human breast cancer cells. Transwells were imaged using a Leica SP5 confocal microscope using a 60×1.4 numerical aperture objective and processed using ImageJ [National Institutes of Health (NIH)] and IMAMS programs. Quantitation was performed by counting the number of tumor cells that had crossed the endothelium within the same field of view (60×, 10 random fields).

The next assay has as its system U87-MG xenograft glioma. As to the kind of experiment: Orthotopic U87-MG xenograft efficacy model (BLI). Particulars: after two weeks of treatment; bevacizumab 5 mg/kg IP every three days; Compound 1 10 mg/kg BID. Type of assay: in vivo, mice. The procedure:
Protocol for in vivo xenograft efficacy study. […] Treatments began on Day 31.
The tumor cells were injected intracerebroventricularly (ICV) and tumor growth was monitored in vivo by quantitation of luciferase-mediated BLI.

The values below come from patent US20170079966A1, “INHIBITION OF TUMOR CELL INTERACTIONS WITH THE MICROENVIRONMENT RESULTING IN A REDUCTION IN TUMOR GROWTH AND DISEASE PROGRESSION” (Deciphera Pharmaceuticals, LLC, priority 2014, published 2017).

Each structure is given as a SMILES string.

As usually defined, the IC50 is the concentration that gives 50% inhibition. A low value points to greater potency.

As to `O=C(Nc1cc(Oc2cc(F)c(NC(=O)C3(C(=O)Nc4ccc(F)cc4)CC3)cc2F)ccn1)C1CC1` [Compound 1, N-(4-(2-(cyclopropanecarboxamido)pyridin-4-yloxy)-2,5-difluorophenyl)-N′-(4-fluorophenyl)cyclopropane-1,1-dicarboxamide], in assay [1], the IC50 is less than 10 nM. Moreover, in the assay on U87-MG xenograft glioma, the “Decrease in BLI signal compared to vehicle” value is 90%.
